Measurements taken from ChEMBL document CHEMBL1201862, “PubChem BioAssay data set” (2004).
The source made the active and inactive calls.

What was measured:
[1] = target: T1, High affinity choline transporter 1 (Homo sapiens, UniProt Q9GZV3); assay: CHT activators, dose response, cell-based, 10-point CRC, membrane potential dye (AID 602376); format: functional
T1 sequence (Q9GZV3 whole entry): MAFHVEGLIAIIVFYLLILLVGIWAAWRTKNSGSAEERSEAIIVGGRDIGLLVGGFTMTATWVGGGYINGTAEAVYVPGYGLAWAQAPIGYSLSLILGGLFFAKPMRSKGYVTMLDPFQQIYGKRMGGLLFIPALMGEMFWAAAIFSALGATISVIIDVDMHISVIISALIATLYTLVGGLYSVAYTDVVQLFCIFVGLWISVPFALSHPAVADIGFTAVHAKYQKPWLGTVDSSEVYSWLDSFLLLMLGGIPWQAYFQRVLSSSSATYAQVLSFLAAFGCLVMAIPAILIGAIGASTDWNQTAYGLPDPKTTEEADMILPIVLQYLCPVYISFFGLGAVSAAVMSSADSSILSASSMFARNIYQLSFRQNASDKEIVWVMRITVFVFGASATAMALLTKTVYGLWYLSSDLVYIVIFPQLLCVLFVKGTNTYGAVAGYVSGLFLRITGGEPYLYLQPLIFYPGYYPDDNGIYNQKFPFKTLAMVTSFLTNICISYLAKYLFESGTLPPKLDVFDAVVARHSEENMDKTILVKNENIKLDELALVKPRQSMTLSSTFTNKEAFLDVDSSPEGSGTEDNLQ

[2] = target: T2, DNA dC->dU-editing enzyme APOBEC-3G (Homo sapiens, UniProt Q9HC16); assay: SAR analysis of small molecule inhibitors of APOBEC3G DNA Deaminase via a fluorescence-based single-stranded DNA deaminase assay - Set 2.; format: functional; settings: read-out: IC50_Mean
[3] = target: Low molecular weight phosphotyrosine protein phosphatase (Homo sapiens, UniProt P24666); format: functional; settings: read-out: IC50_Mean;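 note: Dose-response confirmation assay measuring inhibition of LMPTP enzyme activity by fluorescence intensity read-out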
[4] = target: T3, DNA dC->dU-editing enzyme APOBEC-3A (Homo sapiens, UniProt P31941); assay: SAR analysis of small molecule inhibitors of APOBEC3A DNA Deaminase via a fluorescence-based single-stranded DNA deaminase assay - Set 2.; format: functional; settings: read-out: IC50_Mean
[5] = target: T2, DNA dC->dU-editing enzyme APOBEC-3G; format: functional
Estrogen receptor beta = Estrogen receptor beta (Homo sapiens, UniProt Q92731); assay: ERβ–SRC-3 coactivator interaction inhibitors, confirmation, orthogonal assay, biochemical, ELISA, streptavidin-HRP readout (AID 1060)
[6] = target: T2, DNA dC->dU-editing enzyme APOBEC-3G; assay: APOBEC3G deaminase inhibitors, SAR follow-up, biochemical, fluorescence, single-stranded DNA substrate (AID 602136); format: functional; settings: read-out: IC50_Mean
[7] = target: T3, DNA dC->dU-editing enzyme APOBEC-3A; assay: SAR analysis of small molecule inhibitors of APOBEC3A DNA Deaminase via a fluorescence-based single-stranded DNA deaminase assay.; format: functional; settings: read-out: IC50_Mean
[8] = target: T3, DNA dC->dU-editing enzyme APOBEC-3A; assay: Dose Response confirmation of small molecule APOBEC3A DNA Deaminase Inhibitors via a fluorescence-based single-stranded DNA deaminase assay. [Related pubchem assays (depositor defined):AID493011, AID493024]; format: functional
[9] = A Cell Based Secondary Assay to Explore Cytotoxicity in HepG2 Cells of Compounds that Modulate Mycobacterium tuberculosis in Media Containing Glycerol versus Media without Glycerol (2).; format: functional
[10] = Vero cell cytotoxicity, cytotoxicity control for M. tuberculosis inhibitor project, purified and synthesized samples, set 3 (AID 504684); format: functional
[11] = target: T4, Neuropeptides B/W receptor type 1 (Homo sapiens, UniProt P48145); assay: GPR7 antagonist potency, late-stage follow-up, cell-based, fluorescence, dose response, set 6 (AID 588583); format: functional
T4 sequence (P48145 whole entry): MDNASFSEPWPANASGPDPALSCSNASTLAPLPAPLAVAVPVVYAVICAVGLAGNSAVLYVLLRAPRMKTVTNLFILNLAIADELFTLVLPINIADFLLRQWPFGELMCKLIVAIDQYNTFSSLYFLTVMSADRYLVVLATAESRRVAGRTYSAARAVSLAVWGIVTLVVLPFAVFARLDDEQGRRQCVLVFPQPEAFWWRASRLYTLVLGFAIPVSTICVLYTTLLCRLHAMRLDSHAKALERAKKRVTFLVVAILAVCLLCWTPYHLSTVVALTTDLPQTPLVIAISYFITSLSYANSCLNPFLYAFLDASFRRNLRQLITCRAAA

[12] = target: Melanin-concentrating hormone receptor 1 (Homo sapiens, UniProt Q99705); assay: Late-stage fluorescence-based counterscreen for antagonists of the G-protein coupled receptor 7 (GPR7): cell-based dose response assay to identify antagonists of the melanin-concentrating hormone receptor 1 (MCHR1) Set 6.; format: functional
[13] = target: G protein-coupled receptor kinase 5 (Homo sapiens, UniProt P34947); assay: Navigating the Kinome. Panel member name: GPRK5; format: functional
[14] = target: Cyclin-dependent kinase 8 (Homo sapiens, UniProt P49336); assay: Navigating the Kinome. Panel member name: CDK8; format: functional
[15] = target: Mitogen-activated protein kinase kinase kinase kinase 4 (Homo sapiens, UniProt O95819); format: functional
[16] = target: T5, Interleukin-1 receptor-associated kinase 4 (Homo sapiens, UniProt Q9NWZ3); format: functional
T5 sequence (Q9NWZ3 whole entry): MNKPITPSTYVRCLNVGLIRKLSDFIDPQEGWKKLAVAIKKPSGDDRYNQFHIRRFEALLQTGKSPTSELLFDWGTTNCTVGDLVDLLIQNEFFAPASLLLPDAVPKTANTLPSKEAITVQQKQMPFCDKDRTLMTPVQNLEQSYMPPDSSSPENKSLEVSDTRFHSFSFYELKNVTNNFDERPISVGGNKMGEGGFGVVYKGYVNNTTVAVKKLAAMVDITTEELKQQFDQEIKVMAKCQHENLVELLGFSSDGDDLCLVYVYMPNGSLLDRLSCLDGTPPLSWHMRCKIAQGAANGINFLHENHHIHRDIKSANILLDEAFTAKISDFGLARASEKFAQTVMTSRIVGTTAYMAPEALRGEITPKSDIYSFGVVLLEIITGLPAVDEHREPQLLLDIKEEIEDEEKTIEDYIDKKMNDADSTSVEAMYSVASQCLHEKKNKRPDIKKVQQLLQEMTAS

[17] = target: Serine/threonine-protein kinase pim-1 (Homo sapiens, UniProt P11309); format: functional
[18] = target: Cell division cycle 7-related protein kinase (Homo sapiens, UniProt O00311); format: functional;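 note: value obtained from a kinome-wide kinase panel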
[19] = target: Glycogen synthase kinase-3 beta (Homo sapiens, UniProt P49841); format: functional;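 note: value comes from a broad kinome profiling panel, with GSK3B as the panel member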
[20] = target: cAMP-dependent protein kinase catalytic subunit alpha (Homo sapiens, UniProt P17612); format: functional
[21] = target: Dual specificity protein kinase CLK4 (Homo sapiens, UniProt Q9HAZ1); format: functional
[22] = target: Homeodomain-interacting protein kinase 2 (Homo sapiens, UniProt Q9H2X6); format: functional;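 note: measured within a kinome-wide kinase profiling panel, HIPK2 being one panel member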
[23] = target: MAP kinase-interacting serine/threonine-protein kinase 2 (Homo sapiens, UniProt Q9HBH9); format: functional
[24] = target: Sphingosine 1-phosphate receptor 2 (Homo sapiens, UniProt O95136); assay: S1P2 receptor agonists, human, late-stage follow-up, counter-screen for S1P4 agonist project, cell-based, fluorescence, set 2 (AID 504873); format: functional
[25] = target: Sphingosine 1-phosphate receptor 5 (Homo sapiens, UniProt Q9H228); assay: S1P5 receptor agonists, human, late-stage follow-up, counter-screen for S1P4 agonist project, cell-based, fluorescence, set 2 (AID 504867); format: functional
[26] = target: Sphingosine 1-phosphate receptor 1 (Homo sapiens, UniProt P21453); assay: Late-stage fluorescence-based dose-response cell-based counterscreen assay to identify agonists of the Sphingosine 1-Phosphate Receptor 4 (S1P4): Sphingosine 1-Phosphate Receptor 1 (S1P1) agonist assay Set 2.; format: functional
[27] = target: Sphingosine 1-phosphate receptor 3 (Homo sapiens, UniProt Q99500); assay: Late-stage fluorescence-based dose-response cell-based counterscreen assay to identify agonists of the Sphingosine 1-Phosphate Receptor 4 (S1P4): Sphingosine 1-Phosphate Receptor 3 (S1P3) agonist assay Set 2.; format: functional
[28] = target: Cyclin-dependent kinase 2 (Homo sapiens, UniProt P24941); format: functional;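 note: CDK2 measured as one member of a broad kinome profiling panel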

T2 sequence (Q9HC16 whole entry): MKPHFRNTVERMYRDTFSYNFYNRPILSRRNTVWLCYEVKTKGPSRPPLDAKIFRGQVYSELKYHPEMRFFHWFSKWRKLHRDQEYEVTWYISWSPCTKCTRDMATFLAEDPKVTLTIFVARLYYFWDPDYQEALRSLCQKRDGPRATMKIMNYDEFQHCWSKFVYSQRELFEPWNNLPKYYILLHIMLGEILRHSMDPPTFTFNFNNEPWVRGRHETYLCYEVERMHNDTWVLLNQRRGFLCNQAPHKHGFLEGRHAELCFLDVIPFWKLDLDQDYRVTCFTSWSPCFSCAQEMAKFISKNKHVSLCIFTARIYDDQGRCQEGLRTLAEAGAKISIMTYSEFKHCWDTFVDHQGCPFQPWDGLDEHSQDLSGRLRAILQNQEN
T3 sequence (P31941 whole entry): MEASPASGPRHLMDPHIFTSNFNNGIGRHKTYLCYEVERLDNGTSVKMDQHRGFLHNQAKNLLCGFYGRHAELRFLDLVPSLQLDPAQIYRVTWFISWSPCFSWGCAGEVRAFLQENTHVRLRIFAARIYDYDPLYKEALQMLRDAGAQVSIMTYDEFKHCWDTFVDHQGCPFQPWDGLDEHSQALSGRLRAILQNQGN
Chain of Dual specificity protein kinase CLK4 (Q9HAZ1 whole entry): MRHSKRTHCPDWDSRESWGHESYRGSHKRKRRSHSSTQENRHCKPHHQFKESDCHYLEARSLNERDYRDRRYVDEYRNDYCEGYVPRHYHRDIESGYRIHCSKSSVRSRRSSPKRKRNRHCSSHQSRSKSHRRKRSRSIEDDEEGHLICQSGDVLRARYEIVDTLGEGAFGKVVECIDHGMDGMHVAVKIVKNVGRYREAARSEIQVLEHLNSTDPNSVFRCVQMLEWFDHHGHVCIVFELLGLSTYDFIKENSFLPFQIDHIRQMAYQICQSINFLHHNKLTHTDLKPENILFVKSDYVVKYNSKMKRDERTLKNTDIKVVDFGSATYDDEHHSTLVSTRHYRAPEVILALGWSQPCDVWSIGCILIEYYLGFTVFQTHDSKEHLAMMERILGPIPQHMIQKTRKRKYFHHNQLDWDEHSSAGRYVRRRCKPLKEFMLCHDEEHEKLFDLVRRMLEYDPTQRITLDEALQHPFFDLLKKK
Chain of Cell division cycle 7-related protein kinase (O00311 whole entry): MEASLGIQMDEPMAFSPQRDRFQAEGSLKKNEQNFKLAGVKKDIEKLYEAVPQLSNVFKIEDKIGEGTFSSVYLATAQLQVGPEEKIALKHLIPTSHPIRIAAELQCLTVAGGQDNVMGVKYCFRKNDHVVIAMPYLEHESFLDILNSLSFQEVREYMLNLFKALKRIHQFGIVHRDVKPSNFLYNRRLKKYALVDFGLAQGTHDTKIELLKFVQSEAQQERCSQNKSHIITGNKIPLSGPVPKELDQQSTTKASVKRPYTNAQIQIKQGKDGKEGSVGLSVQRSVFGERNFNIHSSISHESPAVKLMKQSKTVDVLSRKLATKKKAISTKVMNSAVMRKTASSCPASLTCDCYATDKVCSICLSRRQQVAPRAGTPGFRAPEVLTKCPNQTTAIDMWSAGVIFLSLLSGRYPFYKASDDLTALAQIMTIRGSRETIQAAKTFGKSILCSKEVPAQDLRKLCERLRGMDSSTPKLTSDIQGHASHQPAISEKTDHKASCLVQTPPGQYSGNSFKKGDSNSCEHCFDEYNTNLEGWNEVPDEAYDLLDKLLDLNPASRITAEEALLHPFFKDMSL
Chain of Mitogen-activated protein kinase kinase kinase kinase 4 (O95819 whole entry): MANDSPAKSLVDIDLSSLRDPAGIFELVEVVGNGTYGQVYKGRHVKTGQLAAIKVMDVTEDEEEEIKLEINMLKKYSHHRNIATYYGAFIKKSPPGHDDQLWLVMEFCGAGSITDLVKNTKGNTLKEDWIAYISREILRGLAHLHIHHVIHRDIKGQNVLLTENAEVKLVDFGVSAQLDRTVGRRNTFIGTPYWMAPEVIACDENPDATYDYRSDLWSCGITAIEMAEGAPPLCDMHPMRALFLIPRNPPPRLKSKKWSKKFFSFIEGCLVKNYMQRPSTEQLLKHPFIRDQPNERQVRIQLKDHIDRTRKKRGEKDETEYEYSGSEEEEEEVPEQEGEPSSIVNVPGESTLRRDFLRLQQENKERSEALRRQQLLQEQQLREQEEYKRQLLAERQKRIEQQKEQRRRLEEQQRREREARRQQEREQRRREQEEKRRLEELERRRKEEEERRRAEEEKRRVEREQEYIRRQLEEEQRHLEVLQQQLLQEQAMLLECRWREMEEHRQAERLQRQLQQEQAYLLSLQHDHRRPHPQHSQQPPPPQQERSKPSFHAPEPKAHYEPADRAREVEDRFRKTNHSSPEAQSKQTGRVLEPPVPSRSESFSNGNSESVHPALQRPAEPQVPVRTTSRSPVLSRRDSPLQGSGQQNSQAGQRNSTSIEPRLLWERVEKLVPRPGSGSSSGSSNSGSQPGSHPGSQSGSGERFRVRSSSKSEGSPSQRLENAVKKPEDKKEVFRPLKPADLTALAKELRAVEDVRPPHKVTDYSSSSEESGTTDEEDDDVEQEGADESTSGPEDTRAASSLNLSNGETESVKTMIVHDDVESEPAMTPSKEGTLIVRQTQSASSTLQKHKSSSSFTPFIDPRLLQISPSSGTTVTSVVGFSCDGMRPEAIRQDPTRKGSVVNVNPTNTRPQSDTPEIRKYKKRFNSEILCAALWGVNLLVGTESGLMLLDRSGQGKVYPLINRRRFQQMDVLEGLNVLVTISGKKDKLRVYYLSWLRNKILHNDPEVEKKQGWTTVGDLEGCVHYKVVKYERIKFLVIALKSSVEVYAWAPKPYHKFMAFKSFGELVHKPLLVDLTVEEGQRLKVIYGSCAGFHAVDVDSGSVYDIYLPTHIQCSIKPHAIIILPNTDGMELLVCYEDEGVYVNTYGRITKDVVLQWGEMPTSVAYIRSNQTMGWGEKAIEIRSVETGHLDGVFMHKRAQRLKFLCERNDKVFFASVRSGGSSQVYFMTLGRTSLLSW
Chain of Serine/threonine-protein kinase pim-1 (P11309 whole entry): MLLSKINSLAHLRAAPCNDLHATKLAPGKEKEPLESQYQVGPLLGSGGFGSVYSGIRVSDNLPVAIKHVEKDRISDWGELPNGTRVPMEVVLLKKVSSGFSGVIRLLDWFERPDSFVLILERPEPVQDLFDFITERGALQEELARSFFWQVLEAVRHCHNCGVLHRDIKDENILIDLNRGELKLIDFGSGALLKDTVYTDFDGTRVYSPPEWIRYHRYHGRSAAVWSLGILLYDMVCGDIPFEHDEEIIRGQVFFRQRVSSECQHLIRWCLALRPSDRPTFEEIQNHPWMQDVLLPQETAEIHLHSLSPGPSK
Chain of Glycogen synthase kinase-3 beta (P49841 whole entry): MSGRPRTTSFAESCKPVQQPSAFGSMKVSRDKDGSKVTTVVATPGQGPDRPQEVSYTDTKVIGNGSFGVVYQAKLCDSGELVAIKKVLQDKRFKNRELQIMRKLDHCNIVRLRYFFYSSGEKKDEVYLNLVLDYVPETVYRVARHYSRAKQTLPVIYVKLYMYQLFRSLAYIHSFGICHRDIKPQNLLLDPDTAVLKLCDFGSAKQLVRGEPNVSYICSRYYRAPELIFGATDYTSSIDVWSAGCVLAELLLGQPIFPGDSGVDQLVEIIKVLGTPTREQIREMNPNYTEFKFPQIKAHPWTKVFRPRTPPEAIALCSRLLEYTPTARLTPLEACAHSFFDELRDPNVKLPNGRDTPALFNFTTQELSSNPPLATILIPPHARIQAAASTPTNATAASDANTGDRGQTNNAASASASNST
Chain of Homeodomain-interacting protein kinase 2 (Q9H2X6 whole entry): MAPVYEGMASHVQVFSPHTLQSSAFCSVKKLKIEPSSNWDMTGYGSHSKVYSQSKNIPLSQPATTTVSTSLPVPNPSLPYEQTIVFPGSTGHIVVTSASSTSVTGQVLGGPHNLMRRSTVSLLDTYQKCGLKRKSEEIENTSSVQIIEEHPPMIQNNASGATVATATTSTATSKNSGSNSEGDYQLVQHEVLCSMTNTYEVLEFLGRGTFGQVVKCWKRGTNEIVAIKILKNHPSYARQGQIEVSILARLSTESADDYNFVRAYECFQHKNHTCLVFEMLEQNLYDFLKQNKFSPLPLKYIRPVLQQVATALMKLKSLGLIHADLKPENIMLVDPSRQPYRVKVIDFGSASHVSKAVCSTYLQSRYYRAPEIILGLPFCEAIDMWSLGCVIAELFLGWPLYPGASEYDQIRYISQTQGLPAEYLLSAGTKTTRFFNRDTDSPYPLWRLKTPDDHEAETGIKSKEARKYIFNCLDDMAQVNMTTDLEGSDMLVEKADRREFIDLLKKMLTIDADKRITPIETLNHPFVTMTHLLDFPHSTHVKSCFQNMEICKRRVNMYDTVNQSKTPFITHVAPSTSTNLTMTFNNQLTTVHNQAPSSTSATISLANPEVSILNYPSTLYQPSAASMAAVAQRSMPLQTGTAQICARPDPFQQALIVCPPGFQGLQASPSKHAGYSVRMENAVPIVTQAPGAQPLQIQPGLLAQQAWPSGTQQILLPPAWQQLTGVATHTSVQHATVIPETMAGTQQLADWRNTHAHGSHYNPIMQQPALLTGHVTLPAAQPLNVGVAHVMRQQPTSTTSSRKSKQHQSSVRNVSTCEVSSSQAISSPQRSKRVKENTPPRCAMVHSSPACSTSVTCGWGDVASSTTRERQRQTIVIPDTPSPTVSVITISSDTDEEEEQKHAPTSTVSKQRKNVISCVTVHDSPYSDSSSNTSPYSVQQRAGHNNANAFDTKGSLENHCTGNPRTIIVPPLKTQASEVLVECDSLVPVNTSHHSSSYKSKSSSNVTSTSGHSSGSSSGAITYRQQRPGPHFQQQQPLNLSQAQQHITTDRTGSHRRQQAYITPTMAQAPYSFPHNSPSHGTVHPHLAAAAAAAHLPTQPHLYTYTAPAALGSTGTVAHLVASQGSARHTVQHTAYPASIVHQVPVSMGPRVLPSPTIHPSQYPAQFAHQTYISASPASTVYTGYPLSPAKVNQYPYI
Chain of Low molecular weight phosphotyrosine protein phosphatase (P24666 whole entry): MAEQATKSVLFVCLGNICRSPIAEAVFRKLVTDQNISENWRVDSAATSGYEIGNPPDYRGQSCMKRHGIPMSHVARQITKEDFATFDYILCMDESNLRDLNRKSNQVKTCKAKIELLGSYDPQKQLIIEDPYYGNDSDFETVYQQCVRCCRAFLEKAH

Structure (SMILES): O=C1N(Cc2cccc(Cl)c2)C[C@@H]2C[C@@H](c3cccn3-c3ccccn3)N3CCC[C@@]123
- EC50 [1]: 8.22 µM (active)

Structure (SMILES): O=C(NCc1ccc2c(c1)OCO2)c1cc2ncc(Br)cn2n1
- IC50 [2]: 73.1 µM (inactive)
- IC50 [3]: 37.4 µM (inactive)
- IC50 [4]: 21.1 µM (inactive)
- IC50 [5]: 56.5 µM (active)
- IC50 (Estrogen receptor beta): 0.363 µM (not active)
- IC50 [6]: 35 µM (inactive)
- IC50 [7]: 20.3 µM (inactive)
- IC50 [8]: 9.82 µM (active)

Structure (SMILES): O=C(/C=C\c1cccs1)N1CCN(Cc2ccc3c(c2)OCO3)CC1
- CC50 [9]: > 50 µM (active)
- CC50 [10]: > 100 µM (active)

Structure (SMILES): N#CC(c1c(Cl)cnn(Cc2cccc3ccccc23)c1=O)c1coc2ccccc12 (configuration not stated)
- IC50 [11]: 0.294 µM (active)
- IC50 [12]: 0.294 µM (active)

Structure (SMILES): Cc1cc(C)cc(NC(=O)NC2=NN(c3ccccc3)C(=O)C2)c1
- Ki [13]: 3.98 µM (active)
- Ki [14]: 3.16 µM (active)

Structure (SMILES): O=C1Nc2ccccc2Nc2cc(-c3ccncc3Cl)ccc21
- Ki [15]: 0.794 µM (active)
- Ki [16]: 1 µM (active)
- Ki [17]: > 10 µM (inactive)
- Ki [18]: 0.02 µM (active)
- Ki [19]: 0.251 µM (active)
- Ki [20]: 0.794 µM (active)
- Ki [21]: 0.0631 µM (active)
- Ki [22]: 1.26 µM (active)
- Ki [23]: 0.2 µM (active)

Structure (SMILES): C/N=C1/SC(=Cc2cc(C)n(Cc3ccc(F)cc3F)c2C)C(=O)N1C
- EC50 [24]: 13.1 µM (inactive)
- EC50 [25]: 0.0371 µM (active)
- EC50 [26]: 0.287 µM (active)
- EC50 [27]: > 25 µM (inactive)

Structure (SMILES): CCOC(=O)c1c[nH]n2c(=O)cc(-c3ccncc3)nc12
- Ki [15]: > 10 µM (inactive)
- Ki [16]: > 10 µM (inactive)
- Ki [28]: > 7.94 µM (inactive)
- Ki [17]: 3.16 µM (active)
- Ki [18]: 0.00501 µM (active)
- Ki [19]: 0.316 µM (active)
- Ki [20]: > 7.94 µM (inactive)
- Ki [21]: 0.0251 µM (active)
- Ki [22]: 0.0501 µM (active)
